Source: the NIST ThermoML archive (doi:10.1016/j.fluid.2004.11.020)
Numbers after ± are expanded uncertainties.

Assay: Solid-liquid equilibrium temperature
Conditions: closed cylinder with variable piston

## CCCCCCCCCCCCCCCC [hexadecane]
9210 kPa, Crystal
  Solid-liquid equilibrium temperature: 293.15 ± 0.3 K
50650 kPa, Crystal
  Solid-liquid equilibrium temperature: 303.15 ± 0.58 K
95560 kPa, Crystal
  Solid-liquid equilibrium temperature: 313.15 ± 0.9 K
143920 kPa, Crystal
  Solid-liquid equilibrium temperature: 323.15 ± 1.2 K
195740 kPa, Crystal
  Solid-liquid equilibrium temperature: 333.15 ± 1.5 K
251030 kPa, Crystal
  Solid-liquid equilibrium temperature: 343.15 ± 1.9 K

## CCCCCCCCCCCCCCCCCC [octadecane]
8860 kPa, Crystal
  Solid-liquid equilibrium temperature: 303.15 ± 0.3 K
49600 kPa, Crystal
  Solid-liquid equilibrium temperature: 313.15 ± 0.57 K
94900 kPa, Crystal
  Solid-liquid equilibrium temperature: 323.15 ± 0.88 K
144780 kPa, Crystal
  Solid-liquid equilibrium temperature: 333.15 ± 1.2 K
199220 kPa, Crystal
  Solid-liquid equilibrium temperature: 343.15 ± 1.5 K
258230 kPa, Crystal
  Solid-liquid equilibrium temperature: 353.15 ± 1.8 K

## CCCCCCCCCCCCC [tridecane]
100 kPa, Crystal 1
  Solid-liquid equilibrium temperature: 268.21 ± 0.24 K
133010 kPa, Crystal 1
  Solid-liquid equilibrium temperature: 293.15 ± 1 K
197120 kPa, Crystal 1
  Solid-liquid equilibrium temperature: 303.15 ± 1.2 K
265400 kPa, Crystal 1
  Solid-liquid equilibrium temperature: 313.15 ± 1.6 K
337830 kPa, Crystal 1
  Solid-liquid equilibrium temperature: 323.15 ± 1.9 K
414420 kPa, Crystal 1
  Solid-liquid equilibrium temperature: 333.15 ± 2.2 K
495170 kPa, Crystal 1
  Solid-liquid equilibrium temperature: 343.15 ± 2.5 K
